Data taken from US20090054392A1, “NAPHTHYLPYRIMIDINE, NAPHTHYLPYRAZINE AND NAPHTHYLPYRIDAZINE ANALOGS AND THEIR USE AS AGONISTS OF THE WNT-BETA-CATENIN CELLULAR MESSAGING SYSTEM” (Wyeth, priority 2007, published 2009).

Tested on: Dkk1-LRP5-TCF-Luciferase
Experiment: Functional Dkk1-LRP5-TCF-Luciferase Assay in U2OS Cells
Conditions: for fold induction at 2 µM / fold induction at 20 µM / EC50: Homo sapiens, U2OS; for fold induction at 2 µM: read-out: B = TCF ACTIVITY/DMSO CONTROL Fold induction @ 2.0 uM, 2.0 uM compound; for fold induction at 20 µM: read-out: C = TCF ACTIVITY/DMSO CONTROL Fold induction @ 20.0 uM, 20.0 uM compound; for A = MAX FOLD Induction/DMSO CONTROL: maximum fold induction over DMSO control

For `CN(C)S(=O)(=O)N1CC(CNc2nccc(-c3ccc4ccccc4c3)n2)C1` [N,N-dimethyl-3-({[4-(2-naphthyl)pyrimidin-2-yl]amino}methyl)azetidine-1-sulfonamide], the fold induction at 2 µM was 1.47 and the fold induction at 20 µM was 1.14.

Compound `CN(C)CCCN1CCN(c2nccc(-c3ccc4ccccc4c3)n2)CC1` [N,N-dimethyl-3-{4-[4-(2-naphthyl)pyrimidin-2-yl]piperazin-1-yl}propan-1-amine] has a fold induction at 2 µM of 1.87.

Compound `CN(C)C(=O)N1CCC(CNc2nccc(-c3ccc4ccccc4c3)n2)CC1` [N,N-dimethyl-4-({[4-(2-naphthyl)pyrimidin-2-yl]amino}methyl)piperidine-1-carboxamide] has a fold induction at 2 µM of 0.87 and a fold induction at 20 µM of 1.24.

`CN(C)S(=O)(=O)N1CCC(CNc2nccc(-c3ccc4ccccc4c3)n2)CC1` [N,N-dimethyl-4-({[4-(2-naphthyl)pyrimidin-2-yl]amino}methyl)piperidine-1-sulfonamide] was tested, and the fold induction at 20 µM was 1.21.

For `CN(C)C(=O)N1CCCN(c2nccc(-c3ccc4ccccc4c3)n2)CC1` [N,N-dimethyl-4-[4-(2-naphthyl)pyrimidin-2-yl]-1,4-diazepane-1-carboxamide], the fold induction at 2 µM was 1.2, the fold induction at 20 µM was 2.26 and the “A = MAX FOLD Induction/DMSO CONTROL” value was 1.520 fold.

`CN(C)S(=O)(=O)N1CCCN(c2nccc(-c3ccc4ccccc4c3)n2)CC1` [N,N-dimethyl-4-[4-(2-naphthyl)pyrimidin-2-yl]-1,4-diazepane-1-sulfonamide] was tested, and the fold induction at 20 µM was 0.63.

`CN(C)C(=O)N1CCC(Nc2nccc(-c3ccc4ccccc4c3)n2)CC1` [N,N-dimethyl-4-{[4-(2-naphthyl)pyrimidin-2-yl]amino}piperidine-1-carboxamide] was tested, and the EC50 was 0.64 µM, the fold induction at 2 µM was 1.13 and the fold induction at 20 µM was 1.58. For the same compound, the “A = MAX FOLD Induction/DMSO CONTROL” value was 1.810 fold.

Work on `CN(C)S(=O)(=O)N1CCC(Nc2nccc(-c3ccc4ccccc4c3)n2)CC1` [N,N-dimethyl-4-{[4-(2-naphthyl)pyrimidin-2-yl]amino}piperidine-1-sulfonamide] yielded an EC50 of 12 µM, a fold induction at 2 µM of 0.97 and a fold induction at 20 µM of 1.75. For the same compound, the “A = MAX FOLD Induction/DMSO CONTROL” value was 3.210 fold.

In the case of `CN(C)C(=O)N1CCC(N(C)c2nccc(-c3ccc4ccccc4c3)n2)CC1` [N,N-dimethyl-4-{methyl[4-(2-naphthyl)pyrimidin-2-yl]amino}piperidine-1-carboxamide], the fold induction at 2 µM is reported as 1.37 and the fold induction at 20 µM is reported as 0.68.

Work on `CN(C)C(=O)NCCC1CCN(c2nccc(-c3ccc4ccccc4c3)n2)CC1` [N,N-dimethyl-N′-(2-{1-[4-(2-naphthyl)pyrimidin-2-yl]piperidin-4-yl}ethyl)urea] yielded a fold induction at 2 µM of 1.48 and a fold induction at 20 µM of 0.18.

`CN(C)C(=O)NCCN1CCN(c2nccc(-c3ccc4ccccc4c3)n2)CC1` [N,N-dimethyl-N′-(2-{4-[4-(2-naphthyl)pyrimidin-2-yl]piperazin-1-yl}ethyl)urea] showed a fold induction at 2 µM of 1.98.

In the case of `CN(C)S(=O)(=O)N[C@H]1CC[C@H](Nc2nccc(-c3ccc4ccccc4c3)n2)CC1` [N,N-dimethyl-N′-(trans-4-{[4-(2-naphthyl)pyrimidin-2-yl]amino}cyclohexyl)sulfamide], the fold induction at 2 µM is reported as 1.65 and the fold induction at 20 µM is reported as 1.74.

For `CN(C)C(=O)N[C@H]1CC[C@H](Nc2nccc(-c3ccc4ccccc4c3)n2)CC1` [N,N-dimethyl-N′-(trans-4-{[4-(2-naphthyl)pyrimidin-2-yl]amino}cyclohexyl)urea], the fold induction at 2 µM was 2.78, the fold induction at 20 µM was 1.61 and the “A = MAX FOLD Induction/DMSO CONTROL” value was 2.270 fold.

With `CN(C)C(=O)NCC1CN(c2nccc(-c3ccc4ccccc4c3)n2)C1` [N,N-dimethyl-N′-({1-[4-(2-naphthyl)pyrimidin-2-yl]azetidin-3-yl}methyl)urea] the fold induction at 2 µM was 0.99 and the fold induction at 20 µM was 1.43.

`CN(C)S(=O)(=O)NCC1CCN(c2nccc(-c3ccc4ccccc4c3)n2)CC1` [N,N-dimethyl-N′-({1-[4-(2-naphthyl)pyrimidin-2-yl]piperidin-4-yl}methyl)sulfamide] showed a fold induction at 2 µM of 1.05 and a fold induction at 20 µM of 1.11.

In the case of `CN(C)C(=O)NCC1CCN(c2nccc(-c3ccc4ccccc4c3)n2)CC1` [N,N-dimethyl-N′-({1-[4-(2-naphthyl)pyrimidin-2-yl]piperidin-4-yl}methyl)urea], the EC50 is reported as 4.03 µM, the fold induction at 2 µM is reported as 1.12 and the fold induction at 20 µM is reported as 2.36. For the same compound, the “A = MAX FOLD Induction/DMSO CONTROL” value was 1.690 fold.

With `CN(C)S(=O)(=O)NCC1CCN(c2nccc(-c3ccc4ccccc4c3)n2)C1` (centres unmarked) [N,N-dimethyl-N′-({1-[4-(2-naphthyl)pyrimidin-2-yl]pyrrolidin-3-yl}methyl)sulfamide] the fold induction at 2 µM was 0.99 and the fold induction at 20 µM was 1.2.

`CN(C)C(=O)NCC1CCN(c2nccc(-c3ccc4ccccc4c3)n2)C1` (centres unmarked) [N,N-dimethyl-N′-({1-[4-(2-naphthyl)pyrimidin-2-yl]pyrrolidin-3-yl}methyl)urea] was tested, and the fold induction at 2 µM was 0.84 and the fold induction at 20 µM was 1.15.

`CN(C)S(=O)(=O)NC1CCCN(c2nccc(-c3ccc4ccccc4c3)n2)CC1` (centres unmarked) [N,N-dimethyl-N′-{1-[4-(2-naphthyl)pyrimidin-2-yl]azepan-4-yl}sulfamide] showed a fold induction at 2 µM of 1.12 and a fold induction at 20 µM of 1.01.

`CN(C)C(=O)NC1CCCN(c2nccc(-c3ccc4ccccc4c3)n2)CC1` (centres unmarked) [N,N-dimethyl-N′-{1-[4-(2-naphthyl)pyrimidin-2-yl]azepan-4-yl}urea] was tested, and the fold induction at 2 µM was 1.74 and the fold induction at 20 µM was 1.75.

`CN(C)CCN[C@@H]1CCN(c2nccc(-c3ccc4ccccc4c3)n2)C1` [N,N-dimethyl-N′-{(3R)-1-[4-(2-naphthyl)pyrimidin-2-yl]pyrrolidin-3-yl}ethane-1,2-diamine] gave a fold induction at 2 µM of 2.5.

`CN(C)S(=O)(=O)N[C@@H]1CCN(c2nccc(-c3ccc4ccccc4c3)n2)C1` [N,N-dimethyl-N′-{(3R)-1-[4-(2-naphthyl)pyrimidin-2-yl]pyrrolidin-3-yl}sulfamide] showed a fold induction at 2 µM of 1.42 and a fold induction at 20 µM of 0.82.

For `CN(C)C(=O)N[C@@H]1CCN(c2nccc(-c3ccc4ccccc4c3)n2)C1` [N,N-dimethyl-N′-{(3R)-1-[4-(2-naphthyl)pyrimidin-2-yl]pyrrolidin-3-yl}urea], the fold induction at 2 µM was 1.79 and the fold induction at 20 µM was 0.26.

`CN(C)CCN[C@H]1CCN(c2nccc(-c3ccc4ccccc4c3)n2)C1` [N,N-dimethyl-N′-{(3S)-1-[4-(2-naphthyl)pyrimidin-2-yl]pyrrolidin-3-yl}ethane-1,2-diamine] showed a fold induction at 2 µM of 1.5.

With `CN(C)S(=O)(=O)N[C@H]1CCN(c2nccc(-c3ccc4ccccc4c3)n2)C1` [N,N-dimethyl-N′-{(3S)-1-[4-(2-naphthyl)pyrimidin-2-yl]pyrrolidin-3-yl}sulfamide] the fold induction at 2 µM was 1.87.

`CN(C)C(=O)N[C@H]1CCN(c2nccc(-c3ccc4ccccc4c3)n2)C1` [N,N-dimethyl-N′-{(3S)-1-[4-(2-naphthyl)pyrimidin-2-yl]pyrrolidin-3-yl}urea] showed a fold induction at 2 µM of 0.94 and a fold induction at 20 µM of 1.65.

`CCCN(C)CCN(C)[C@@H]1CCN(c2nccc(-c3ccc4ccccc4c3)n2)C1` [N,N′-dimethyl-N-{(3R)-1-[4-(2-naphthyl)pyrimidin-2-yl]pyrrolidin-3-yl}-N′-propylethane-1,2-diamine] gave a fold induction at 2 µM of 3.4.

In the case of `CNCCN(C)[C@@H]1CCN(c2nccc(-c3ccc4ccccc4c3)n2)C1` [N,N′-dimethyl-N-{(3R)-1-[4-(2-naphthyl)pyrimidin-2-yl]pyrrolidin-3-yl}ethane-1,2-diamine], the fold induction at 2 µM is reported as 1.2.

For `CC(=O)N1CCC(Nc2nccc(-c3ccc4ccccc4c3)n2)CC1` [N-(1-acetylpiperidin-4-yl)-4-(2-naphthyl)pyrimidin-2-amine], the EC50 was 5.5 µM, the fold induction at 2 µM was 1.09 and the fold induction at 20 µM was 2.53. For the same compound, the “A = MAX FOLD Induction/DMSO CONTROL” value was 2.428 fold.

In the case of `CC(=O)N1CCC(N(C)c2nccc(-c3ccc4ccccc4c3)n2)CC1` [N-(1-acetylpiperidin-4-yl)-N-methyl-4-(2-naphthyl)pyrimidin-2-amine], the fold induction at 2 µM is reported as 1.37, the fold induction at 20 µM is reported as 0.37 and the “A = MAX FOLD Induction/DMSO CONTROL” value is reported as 1.650 fold.

`O=C(c1ccccc1)N1CCC(Nc2nccc(-c3ccc4ccccc4c3)n2)CC1` [N-(1-benzoylpiperidin-4-yl)-4-(2-naphthyl)pyrimidin-2-amine] was tested, and the fold induction at 2 µM was 1.95, the fold induction at 20 µM was 0.01 and the “A = MAX FOLD Induction/DMSO CONTROL” value was 1.490 fold.

For `CN(c1nccc(-c2ccc3ccccc3c2)n1)C1CCN(C(=O)c2ccccc2)CC1` [N-(1-benzoylpiperidin-4-yl)-N-methyl-4-(2-naphthyl)pyrimidin-2-amine], the fold induction at 2 µM was 1.85.

`CN(c1nccc(-c2ccc3ccccc3c2)n1)C1CCN(Cc2ccccc2)CC1` [N-(1-benzylpiperidin-4-yl)-N-methyl-4-(2-naphthyl)pyrimidin-2-amine] showed a fold induction at 2 µM of 1.55 and a fold induction at 20 µM of 1.24.

In the case of `c1ccc2cc(-c3ccnc(NCCN4CCOCC4)n3)ccc2c1` [N-(2-morpholin-4-ylethyl)-4-(2-naphthyl)pyrimidin-2-amine], the EC50 is reported as 5.7 µM, the fold induction at 2 µM is reported as 2.11 and the fold induction at 20 µM is reported as 2.44. The “A = MAX FOLD Induction/DMSO CONTROL” value was 1.853 fold.

`O=C(NCCC1CCN(c2nccc(-c3ccc4ccccc4c3)n2)CC1)Nc1ccccc1` [N-(2-{1-[4-(2-naphthyl)pyrimidin-2-yl]piperidin-4-yl}ethyl)-N′-phenylurea] was tested, and the fold induction at 2 µM was 1 and the fold induction at 20 µM was 1.5.

`CC(=O)NCCC1CCN(c2nccc(-c3ccc4ccccc4c3)n2)CC1` [N-(2-{1-[4-(2-naphthyl)pyrimidin-2-yl]piperidin-4-yl}ethyl)acetamide] was tested, and the fold induction at 2 µM was 2.27, the fold induction at 20 µM was 1 and the “A = MAX FOLD Induction/DMSO CONTROL” value was 1.360 fold.

`O=C(NCCC1CCN(c2nccc(-c3ccc4ccccc4c3)n2)CC1)c1ccccc1` [N-(2-{1-[4-(2-naphthyl)pyrimidin-2-yl]piperidin-4-yl}ethyl)benzamide] showed a fold induction at 2 µM of 0.91 and a fold induction at 20 µM of 1.95.

`CS(=O)(=O)NCCC1CCN(c2nccc(-c3ccc4ccccc4c3)n2)CC1` [N-(2-{1-[4-(2-naphthyl)pyrimidin-2-yl]piperidin-4-yl}ethyl)methanesulfonamide] was tested, and the “A = MAX FOLD Induction/DMSO CONTROL” value was 0.880 fold.
